Assay results as given in ChEMBL document CHEMBL1201862, “PubChem BioAssay data set” (2004).
Calls of active or inactive are those of the source.

Key:
[1] = target: T1, Sentrin-specific protease 1 (Homo sapiens, UniProt Q9P0U3); assay: SENP1 catalytic domain blockers, concentration series – biochemical, kinetic FRET, dose response (AID 651697); assay type: functional; details: read-out: IC50_Mean
T1 sequence (Q9P0U3 whole entry): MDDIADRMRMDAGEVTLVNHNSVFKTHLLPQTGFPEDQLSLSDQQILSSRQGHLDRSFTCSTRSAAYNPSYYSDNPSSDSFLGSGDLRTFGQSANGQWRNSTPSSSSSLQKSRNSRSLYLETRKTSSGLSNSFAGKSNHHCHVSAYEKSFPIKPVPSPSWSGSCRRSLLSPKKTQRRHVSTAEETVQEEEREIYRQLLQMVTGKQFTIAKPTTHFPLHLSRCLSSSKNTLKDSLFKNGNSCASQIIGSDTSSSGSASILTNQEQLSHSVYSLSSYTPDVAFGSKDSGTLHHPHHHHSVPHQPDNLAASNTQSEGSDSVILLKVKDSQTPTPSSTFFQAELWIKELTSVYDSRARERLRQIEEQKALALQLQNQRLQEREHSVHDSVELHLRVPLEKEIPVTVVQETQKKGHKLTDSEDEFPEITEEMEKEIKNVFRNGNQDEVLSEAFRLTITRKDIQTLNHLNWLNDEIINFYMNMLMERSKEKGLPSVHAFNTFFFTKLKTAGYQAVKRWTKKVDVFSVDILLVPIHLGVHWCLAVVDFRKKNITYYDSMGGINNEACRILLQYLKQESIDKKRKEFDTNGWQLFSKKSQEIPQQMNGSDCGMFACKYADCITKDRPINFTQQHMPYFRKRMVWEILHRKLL

[2] = target: T1, Sentrin-specific protease 1; assay: Dose response confirmation of small molecule inhibitors of the catalytic domain of the SUMO protease, SENP1 in a FRET assay.; assay type: functional; details: read-out: IC50_Mean
[3] = Trypanosoma cruzi growth suppression in host cells – NIH3T3 host cells, beta-gal luminescence, confirmation (AID 2044); assay type: functional, cell-based;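 also: intracellular parasites grown in NIH/3T3 mouse fibroblasts as host cells; luminescent beta-galactosidase reporter signal from transgenic T. cruzi replicating inside host cells; inhibitors lower the luminescence signal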
[4] = NIH3T3 cell viability loss – ATP luminescence, mouse fibroblasts, counter-screen, dose response (AID 2010); assay type: functional, cell-based;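 also: cells exposed to compound for about 90 hours before reading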
Vero [5] = assay: viability of Vero cells under compound – cytotoxicity control for flavivirus capping enzyme inhibitors (AID 588742); assay type: functional; details: Chlorocebus sabaeus
[6] = luciferase reporter signal suppression in cells – H4 neuroglioma cells, luminescence, dose response (AID 1990); assay type: functional, cell-based
[7] = Luminescence Cell-Based Dose Response HTS to Identify Inhibitors of 5'UTR Stem-Loop Driven Prion Protein mRNA Translation in H4 Neuroglioblastoma Cells. [Related pubchem assays: 1827 (Project Summary), 1813 (Primary HTS)]; assay type: functional
[8] = alpha-synuclein stem-loop luciferase translation blockers – H4 neuroglioma cells, luminescence, confirmation (AID 1988); assay type: functional, cell-based
[9] = target: T2, Ubiquitin-conjugating enzyme E2 N (Homo sapiens, UniProt P61088); assay type: functional;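 also: Dose-response confirmation in a TR-FRET assay detecting UBC13-driven polyubiquitin chain formation, inhibition measured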
T2 sequence (P61088 whole entry): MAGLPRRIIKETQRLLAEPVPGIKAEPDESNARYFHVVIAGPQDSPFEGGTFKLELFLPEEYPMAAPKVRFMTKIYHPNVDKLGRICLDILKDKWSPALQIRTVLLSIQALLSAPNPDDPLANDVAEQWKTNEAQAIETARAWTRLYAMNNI

Vero [10] = assay: cells; assay type: functional; details: Chlorocebus sabaeus
[11] = target: 26S proteasome non-ATPase regulatory subunit 14 (Homo sapiens, UniProt O00487); assay: inhibition of proteasome subunit RPN11 – biochemical, fluorescence polarization, uHTS hits, confirmation (AID 602368); assay type: functional
[12] = target: 72 kDa type IV collagenase (Homo sapiens, UniProt P08253); assay: Dose Response validation of uHTS RPN11 inhibitor hits using a MMP-2 Fluorescence assay.; assay type: functional
Prothrombin = Prothrombin (Bos taurus, UniProt P00735); assay: thrombin protease inhibitors – biochemical, fluorescence polarization, uHTS hits, dose response (AID 602369); assay type: functional
Leucine aminopeptidase = target: T3, Leucine aminopeptidase (Plasmodium falciparum 3D7, UniProt Q8IL11); assay: P. falciparum M17LAP inhibitors, primary screen, biochemical, fluorogenic H-Leu-NHMec substrate, 1536-well (AID 1619); assay type: functional
T3 sequence (Q8IL11 whole entry): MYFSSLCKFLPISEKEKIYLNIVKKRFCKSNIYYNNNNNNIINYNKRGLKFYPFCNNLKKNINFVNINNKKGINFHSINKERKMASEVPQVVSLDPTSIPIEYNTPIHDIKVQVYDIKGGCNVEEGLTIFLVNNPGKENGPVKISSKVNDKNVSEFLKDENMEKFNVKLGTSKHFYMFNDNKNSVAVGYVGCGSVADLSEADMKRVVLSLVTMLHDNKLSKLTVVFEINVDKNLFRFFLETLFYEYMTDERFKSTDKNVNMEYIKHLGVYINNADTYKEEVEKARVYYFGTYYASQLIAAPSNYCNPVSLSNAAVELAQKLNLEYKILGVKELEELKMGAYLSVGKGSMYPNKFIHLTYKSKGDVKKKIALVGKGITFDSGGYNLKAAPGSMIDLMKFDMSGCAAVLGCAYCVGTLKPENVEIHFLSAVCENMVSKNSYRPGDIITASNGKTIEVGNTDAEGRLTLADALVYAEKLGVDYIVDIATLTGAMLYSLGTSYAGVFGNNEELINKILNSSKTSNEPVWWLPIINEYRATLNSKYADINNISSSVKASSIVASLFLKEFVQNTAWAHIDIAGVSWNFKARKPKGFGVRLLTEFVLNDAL

HEK293 [13] = assay: cells; assay type: functional, cell-based; details: Homo sapiens
[14] = target: T4, Nuclear receptor subfamily 0 group B member 1 (Homo sapiens, UniProt P51843); assay: Luminescence-based cell-based high throughput dose response assay for inhibitors of the orphan nuclear receptor subfamily 0, group B, member 1 (DAX1; NR0B1). [Related pubchem assays (depositor defined):AID504766, AID504790]; assay type: functional
T4 sequence (P51843 whole entry): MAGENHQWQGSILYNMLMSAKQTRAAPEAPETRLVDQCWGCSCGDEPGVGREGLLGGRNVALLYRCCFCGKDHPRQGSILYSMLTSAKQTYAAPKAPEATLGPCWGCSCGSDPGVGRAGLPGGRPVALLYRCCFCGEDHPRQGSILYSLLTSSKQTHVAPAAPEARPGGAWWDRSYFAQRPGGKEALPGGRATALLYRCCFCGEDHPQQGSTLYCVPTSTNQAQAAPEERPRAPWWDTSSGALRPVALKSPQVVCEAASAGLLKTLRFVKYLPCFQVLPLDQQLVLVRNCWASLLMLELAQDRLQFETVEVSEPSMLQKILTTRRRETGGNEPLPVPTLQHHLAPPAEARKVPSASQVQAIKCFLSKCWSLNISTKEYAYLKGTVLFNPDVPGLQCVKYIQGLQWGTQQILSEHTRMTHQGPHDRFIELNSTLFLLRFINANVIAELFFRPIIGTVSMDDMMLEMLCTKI

[15] = target: Nuclear receptor subfamily 5 group A member 2 (Homo sapiens, UniProt O00482); assay type: functional, cell-based;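 also: HEK293T cells transfected with LRH-1 and a StAR promoter luciferase reporter; potency for inhibitors that lower LRH-1 driven reporter light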
Steroidogenic factor 1 = Steroidogenic factor 1 (Homo sapiens, UniProt Q13285); assay: Counterscreen for inverse agonists of the liver receptor homolog-1 (LRH-1; NR5A2): Luminescence-based cell-based high throughput dose response assay to identify inverse agonists of the Steroidogenic Factor 1 Nuclear Receptor (SF1; NR5A1).; assay type: functional
[16] = nonselective StAR promoter luciferase inhibitors – cell-based, luminescence, luciferase reporter, counter-screen for LRH-1 inverse agonist project, dose response (AID 651969); assay type: functional
HEK293 [17] = assay: inhibition of NOD1-driven NF-kB reporter – cell-based, luminescence, uHTS, primary screen (AID 1578); assay type: functional; details: Homo sapiens
HEK293 [18] = assay: cells; assay type: functional, cell-based; details: Homo sapiens; remark: listed apart in the source
HEK293 [19] = assay: cells; assay type: functional, cell-based; details: Homo sapiens; remark: listed apart in the source
HEK293 [20] = assay: NOD2 signaling inhibitors in MDP-stimulated cells, cell-based, uHTS, luminescence (AID 2001); assay type: functional; details: Homo sapiens
[21] = target: T5, Corticotropin-releasing factor receptor 2/Corticotropin-releasing factor-binding protein (Homo sapiens, UniProt P24387+Q13324); assay: Dose Response confirmation of uHTS hits for small molecule antagonists of the CRF-binding protein and CRF-R2 receptor complex.; assay type: functional; details: read-out: IC50_Mean
T5 sequence (Q13324 whole entry): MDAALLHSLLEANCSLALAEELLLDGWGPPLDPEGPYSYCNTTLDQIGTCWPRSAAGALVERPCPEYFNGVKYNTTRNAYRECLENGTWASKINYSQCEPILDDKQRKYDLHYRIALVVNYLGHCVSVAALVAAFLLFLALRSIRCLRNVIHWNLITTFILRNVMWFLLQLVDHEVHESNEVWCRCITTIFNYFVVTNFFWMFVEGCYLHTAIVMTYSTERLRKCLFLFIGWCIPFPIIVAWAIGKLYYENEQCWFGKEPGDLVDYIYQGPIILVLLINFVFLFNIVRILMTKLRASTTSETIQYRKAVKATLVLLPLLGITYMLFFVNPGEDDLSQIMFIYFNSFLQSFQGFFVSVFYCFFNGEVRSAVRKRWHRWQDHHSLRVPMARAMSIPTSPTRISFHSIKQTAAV
T5 sequence (P24387 whole entry): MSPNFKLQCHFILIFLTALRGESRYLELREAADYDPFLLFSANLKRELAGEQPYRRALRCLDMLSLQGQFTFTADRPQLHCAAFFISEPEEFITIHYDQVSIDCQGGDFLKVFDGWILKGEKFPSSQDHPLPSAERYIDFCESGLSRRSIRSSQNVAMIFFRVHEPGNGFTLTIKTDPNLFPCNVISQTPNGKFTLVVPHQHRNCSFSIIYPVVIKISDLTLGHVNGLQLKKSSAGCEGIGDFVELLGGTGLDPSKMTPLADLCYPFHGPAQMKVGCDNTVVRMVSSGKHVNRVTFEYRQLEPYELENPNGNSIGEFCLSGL

[22] = target: T5, Corticotropin-releasing factor receptor 2/Corticotropin-releasing factor-binding protein; assay: activators of CRF receptor 2 with binding protein – uHTS hits, confirmation (AID 602473); assay type: functional; details: read-out: EC50_Mean
[23] = blockers of CRF-binding protein–CRF-R2 complex – cell-based, uHTS hits, 384-well, dose response (AID 651639); assay type: functional, Homo sapiens; details: read-out: IC50_Mean
[24] = decrease of insulin promoter-GFP reporter – imaging, high-content screening, mouse beta cells (AID 1628); assay type: functional; details: MIN6
[25] = MIN6 cell viability loss – mouse insulinoma, cytotoxicity control, dose response (AID 2122); assay type: functional;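 also: confirmatory high-throughput counterscreen run to flag cytotoxic compounds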
INS1 = assay: INS-1E survival protection against cytokine death – cell-based, luminescence, retest, dose response (AID 449756); assay type: functional; details: Rattus norvegicus;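 also: cell death triggered by IL-1 beta plus TNF-alpha plus IFN-gamma mixture; protective hits raise ATP signal compared with cytokine alone wells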

Chain of Steroidogenic factor 1 (Q13285 whole entry): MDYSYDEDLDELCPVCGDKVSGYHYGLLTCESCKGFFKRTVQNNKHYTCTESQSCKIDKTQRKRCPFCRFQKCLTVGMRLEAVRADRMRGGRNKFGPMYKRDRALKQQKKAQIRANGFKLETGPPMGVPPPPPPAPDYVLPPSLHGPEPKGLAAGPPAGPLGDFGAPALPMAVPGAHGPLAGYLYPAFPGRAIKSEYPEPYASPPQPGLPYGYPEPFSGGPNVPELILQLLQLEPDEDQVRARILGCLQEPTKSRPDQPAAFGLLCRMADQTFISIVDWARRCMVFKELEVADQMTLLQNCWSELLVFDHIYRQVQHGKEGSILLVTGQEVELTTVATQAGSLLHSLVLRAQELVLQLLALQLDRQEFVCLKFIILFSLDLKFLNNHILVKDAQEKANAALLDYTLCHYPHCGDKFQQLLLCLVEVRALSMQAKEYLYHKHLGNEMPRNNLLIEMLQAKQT
Chain of Nuclear receptor subfamily 5 group A member 2 (O00482 whole entry): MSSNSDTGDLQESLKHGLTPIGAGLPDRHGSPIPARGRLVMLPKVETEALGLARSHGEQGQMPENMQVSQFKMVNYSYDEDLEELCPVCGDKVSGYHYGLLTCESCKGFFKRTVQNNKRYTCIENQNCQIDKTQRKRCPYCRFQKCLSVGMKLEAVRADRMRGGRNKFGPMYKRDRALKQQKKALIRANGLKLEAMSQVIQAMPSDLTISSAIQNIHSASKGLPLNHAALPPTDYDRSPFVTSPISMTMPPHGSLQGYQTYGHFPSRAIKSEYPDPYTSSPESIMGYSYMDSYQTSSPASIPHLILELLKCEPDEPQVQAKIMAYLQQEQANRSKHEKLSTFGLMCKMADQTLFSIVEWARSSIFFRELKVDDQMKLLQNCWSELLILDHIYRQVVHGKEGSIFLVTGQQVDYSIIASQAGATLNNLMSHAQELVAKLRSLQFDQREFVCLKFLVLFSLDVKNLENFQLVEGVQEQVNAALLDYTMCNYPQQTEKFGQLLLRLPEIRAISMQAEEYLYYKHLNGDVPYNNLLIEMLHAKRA
Chain of 26S proteasome non-ATPase regulatory subunit 14 (O00487 whole entry): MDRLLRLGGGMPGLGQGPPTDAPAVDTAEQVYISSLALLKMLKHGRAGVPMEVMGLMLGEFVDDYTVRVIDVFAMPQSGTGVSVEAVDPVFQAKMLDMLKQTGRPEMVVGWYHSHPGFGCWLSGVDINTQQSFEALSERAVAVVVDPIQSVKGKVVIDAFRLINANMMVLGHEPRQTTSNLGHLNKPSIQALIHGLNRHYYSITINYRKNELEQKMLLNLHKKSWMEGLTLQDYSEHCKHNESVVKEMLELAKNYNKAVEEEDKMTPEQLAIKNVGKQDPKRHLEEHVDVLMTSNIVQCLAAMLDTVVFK
Chain of 72 kDa type IV collagenase (P08253 whole entry): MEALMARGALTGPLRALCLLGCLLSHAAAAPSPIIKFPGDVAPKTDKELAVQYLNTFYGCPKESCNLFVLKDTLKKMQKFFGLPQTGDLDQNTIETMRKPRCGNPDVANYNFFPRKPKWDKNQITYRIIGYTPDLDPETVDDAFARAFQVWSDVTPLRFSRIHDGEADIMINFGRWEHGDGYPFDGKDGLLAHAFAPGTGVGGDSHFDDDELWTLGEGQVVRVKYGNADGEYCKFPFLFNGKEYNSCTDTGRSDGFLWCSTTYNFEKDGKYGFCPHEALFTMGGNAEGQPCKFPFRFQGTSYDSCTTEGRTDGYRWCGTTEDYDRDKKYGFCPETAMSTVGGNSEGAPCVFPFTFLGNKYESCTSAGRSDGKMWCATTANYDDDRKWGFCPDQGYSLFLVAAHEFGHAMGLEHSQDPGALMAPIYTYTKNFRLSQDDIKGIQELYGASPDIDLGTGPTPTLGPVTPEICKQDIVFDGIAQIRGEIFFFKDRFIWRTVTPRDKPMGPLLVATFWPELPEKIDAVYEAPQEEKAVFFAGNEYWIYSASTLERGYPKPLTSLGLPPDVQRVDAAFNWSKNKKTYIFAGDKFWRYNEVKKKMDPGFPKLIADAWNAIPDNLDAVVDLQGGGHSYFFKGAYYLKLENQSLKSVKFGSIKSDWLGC

COc1ccccc1NN=C1C(=O)NC(=S)NC1=O
IC50 [1]: 23.3 µM (inactive) | IC50 [2]: 18 µM (active)

CN1CCN(S(=O)(=O)c2cccc(C(=O)Nc3sc4c(c3-c3nc5ccccc5[nH]3)CCCC4)c2)CC1
EC50 [3]: 1.67 µM (active) | EC50 [4]: > 60 µM (not active) | CC50 (Vero [5]): > 40 µM (active)

CN1CCc2c(sc3c2C(=O)NC(c2cn(Cc4ccccc4)c4ccccc24)N3)C1 (stereo not given)
EC50 [6]: 8.71 µM (active) | EC50 [7]: 8.12 µM (active) | EC50 [8]: 5.25 µM (active) | IC50 [9]: > 20 µM (inactive) | CC50 (Vero [10]): 17.1 µM (active) | IC50 [11]: 23.4 µM (active) | IC50 [12]: > 100 µM (inactive) | IC50 (Prothrombin): 16 µM (active)

O=C(NCC1CCCO1)c1sc(=S)n2c1[nH]c(=O)c1ccc(C(=O)N3CCCCC3)cc12 (stereo not given)
IC50 (Leucine aminopeptidase): 65.4 µM (active) | IC50 [1]: 51.1 µM (inactive) | IC50 [2]: 21.1 µM (inactive)

O=C(CSc1nnc(Cc2cc(O)nc(O)n2)n1-c1ccc(F)cc1)N1CCCCC1
IC50 (HEK293 [13]): > 67.6 µM (inactive) | IC50 [14]: > 67.6 µM (inactive)

CCCc1nnc(SCC(=O)Nc2ccc(OC)cc2)o1
IC50 [15]: 6.68 µM (active) | IC50 (Steroidogenic factor 1): 15.5 µM (inactive) | IC50 [16]: 35.9 µM (inactive)

C/C(=N\NC(=O)c1cc(Cl)ccc1O)c1ccc(Br)s1
EC50 (HEK293 [17]): 1.93 µM (active) | IC50 (HEK293 [18]): 5.47 µM (active) | IC50 (HEK293 [19]): > 20 µM (inactive) | IC50 (HEK293 [20]): 6.21 µM (inactive) | IC50 [21]: < 0.368 µM (active) | EC50 [22]: > 53 µM (inactive) | IC50 [23]: > 20 µM (inactive)

Cc1[nH]n(C2=NCCS2)c(=O)c1N=Nc1cccc(C(F)(F)F)c1
IC50 [24]: 1.75 µM (active) | IC50 [25]: 2.2 µM (active) | EC50 [3]: 0.669 µM (active) | EC50 [4]: > 60 µM (not active) | AC50 (INS1): 2.5 µM (active)

Cn1c(-c2ccccc2)c(/C=N/NC(=O)c2ccc(O)cc2)c2ccccc21
IC50 (HEK293 [13]): > 67.5 µM (inactive) | IC50 [14]: > 67.5 µM (inactive)
